Assay: Cumulative skin permeation study in a 3 ml permeation cell (Example 2)
Format: in vitro ADME, human
Conditions: 2% w/w diclofenac sodium hydroalcoholic gels
Description: In a cumulative skin permeation study in a 3 ml permeation cell, cumulative permeation through a skin sample from a human donor was studied. Five different compositions were tested in six replicates. Cumulative permeation was measured at 4 hours (hrs) and at 24 hrs after application of a dose. However, cumulative permeation at 4 hrs was below the measurement threshold in this experiment and thus is not reported for Example 2. All formulations were applied in a dose of 6 microlitres onto skin sample of a defined surface area. The following formulations were studied: […]

Substance | effect of non-ionic emulsifier on cumulative permeation of diclofenac at 24 hrs
Polysorbate 20 [Kolliphor PS 20] | permeation retarding effect
macrogol cetostearyl ether 20 [Kolliphor CS 20] | more pronounced

From US20260091011A1, “HYDROALCOHOLIC SINGLE PHASE GEL COMPOSITIONS FOR TOPICAL DELIVERY OF DICLOFENAC” (HALEON CH SARL, priority 2022, published 2026)
